Measured values as given in patent US20110294843A1, “ADMINISTRATION SCHEME OF POLAR OPIOID METABOLITES FOR POST-OPERATIVE PAIN MANAGEMENT” (PAION UK Limited, priority 2008, published 2011).
Read-outs that look alike come from different tables or passages of the source.

Experiments:
[1] = literature, cited from earlier work
[2] = target: μ-opioid receptor (Homo sapiens, UniProt P35372); settings: cited from earlier work
[3] = Pharmacokinetics of M6G at single and multiple intravenous doses in healthy volunteers; assay type: in vivo, human; settings: for MRT inf: read-out: MRT0-∞; for Vd: read-out: Vss
Description: Healthy male and female subjects were divided into two groups (A and B) with 12 in each. Group A received three single intravenous infusions of M6G over 5 mins at levels of 15, 30 and 45 mg/70 kg in random order, having taken 50 mg of naloxone orally 24 hrs beforehand. There was a seven-day wash-out period between each dose. Blood samples were taken pre-dose and at the following time-points: 3, 5, 15, 30 mins and 1, 2, 3, 4, 6, 12 and 24 hrs after the start of the infusion. Group, B received five, 15 mg/70 kg, intravenous infusions of M6G, each over five minutes, at 6-hourly intervals, having taken a 50 mg oral dose of naloxone 24 hrs before the first infusion. Blood samples were taken before each of the 5 doses, and at 3, 5, 15, 30 mins and at 1, 2, 3 and 4 hrs after the initiation of the 1st and 5th infusions and at 6 hrs after the 5th dose. Vital signs (supine blood pressure, pulse, respiratory rate and oral temperature), respiration rate, pulse oximetry and adverse events were monitored during the study. Plasma levels of M6G were measured using HPLC/ms/ms.

[4] = both sexes, human, plasma, intravenous, 15 mg/70 kg, multiple dose, Dose 1-15 mg, Geometric Mean
[5] = both sexes, human, plasma, intravenous, 15 mg/70 kg, multiple dose, Dose 1-15 mg, Mean
[6] = both sexes, human, plasma, intravenous, 15 mg/70 kg, multiple dose, Dose 1-15 mg, Median
[7] = both sexes, human, plasma, iv, 15 mg/70 kg, single 5 min iv infusion 15 mg, Geometric Mean

μ-opioid receptor, sequence (P35372 whole entry, species assumed): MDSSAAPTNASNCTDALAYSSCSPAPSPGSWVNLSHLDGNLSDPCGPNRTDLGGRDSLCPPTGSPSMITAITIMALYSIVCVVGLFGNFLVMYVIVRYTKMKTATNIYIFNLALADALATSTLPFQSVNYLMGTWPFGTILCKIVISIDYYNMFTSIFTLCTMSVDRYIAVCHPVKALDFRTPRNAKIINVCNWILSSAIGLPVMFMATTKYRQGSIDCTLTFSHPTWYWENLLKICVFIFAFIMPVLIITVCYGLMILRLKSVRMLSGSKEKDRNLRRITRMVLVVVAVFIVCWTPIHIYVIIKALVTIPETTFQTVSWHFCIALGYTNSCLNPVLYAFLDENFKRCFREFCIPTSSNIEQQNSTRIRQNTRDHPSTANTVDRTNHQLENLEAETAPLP

Structure (SMILES): CN1CC[C@]23c4c5ccc(O)c4O[C@H]2[C@@H](OC2OC(C(=O)O)C(O)C(O)C2O)C=CC3[C@H]1C5 (stereo partly drawn) [M6G, (5α,6α)-7,8-Didehydro-4,5-epoxy-3-hydroxy-17-methylmorphinan-β-yl-β-D-glucopyranosiduronic acid]
- Log P ([1]; Avdeef et al. 1996): −0.76
- Log P ([1]; Gaillard et al. 1994, calculated from lipophilicity potential): −1.3
- Log P ([1]; Wu et al. 1997): −2.95
- affinity for the μ-opioid receptor compared with morphine [2]: comparable affinity
- average peak concentrations higher following Dose 5 than Dose 1 ([3]; 15 mg 6-hourly iv infusions): approximately 25%
- dose proportionality of exposure (Cmax, AUC0-t, AUC0-∞) ([3]; 15, 30 and 45 mg single iv infusions): directly dose-proportional
- concentration at 6 h ([3]; both sexes, human, plasma, 15 mg/70 kg, 6 hours after each dose, 15 mg 6-hourly iv, read-out: trough levels): 63.9 ± 16.5 ng/mL
- clearance [3, 4]: 119 mL/min
- AUC(0-t) ([3]; both sexes, human, plasma, intravenous, 15 mg/70 kg, multiple dose, Dose 1-15 mg, Geometric Mean, read-out: AUC0-6): 1910 ng·h/mL
- AUC(0-inf) ([3]; both sexes, human, plasma, intravenous, 15 mg/70 kg, multiple dose, Dose 1-15 mg, Geometric Mean, read-out: AUC0-∞): 2110 ng·h/mL
- Cmax ([3]; both sexes, human, plasma, intravenous, 15 mg/70 kg, multiple dose, Dose 1-15 mg, Geometric Mean, read-out: Cmax): 1840 ng/mL
- MRT inf [3, 4]: 2.07 h
- Vd [3, 4]: 14.7 L
- half-life ([3]; both sexes, human, plasma, intravenous, 15 mg/70 kg, multiple dose, Dose 1-15 mg, Geometric Mean, read-out: t1/2 (converted)): 1.71 h
- clearance [3, 5]: 119 mL/min
- AUC(0-t) ([3]; both sexes, human, plasma, intravenous, 15 mg/70 kg, multiple dose, Dose 1-15 mg, Mean, read-out: AUC0-6): 1920 ng·h/mL
- AUC(0-inf) ([3]; both sexes, human, plasma, intravenous, 15 mg/70 kg, multiple dose, Dose 1-15 mg, Mean, read-out: AUC0-∞): 2130 ng·h/mL
- Cmax ([3]; both sexes, human, plasma, intravenous, 15 mg/70 kg, multiple dose, Dose 1-15 mg, Mean, read-out: Cmax): 1980 ng/mL
- MRT inf [3, 5]: 2.1 h
- Vd [3, 5]: 14.8 L
- half-life ([3]; both sexes, human, plasma, intravenous, 15 mg/70 kg, multiple dose, Dose 1-15 mg, Mean, read-out: t1/2 (converted)): 1.73 h
- clearance [3, 6]: 113 mL/min
- AUC(0-t) ([3]; both sexes, human, plasma, intravenous, 15 mg/70 kg, multiple dose, Dose 1-15 mg, Median, read-out: AUC0-6): 1950 ng·h/mL
- AUC(0-inf) ([3]; both sexes, human, plasma, intravenous, 15 mg/70 kg, multiple dose, Dose 1-15 mg, Median, read-out: AUC0-∞): 2210 ng·h/mL
- Cmax ([3]; both sexes, human, plasma, intravenous, 15 mg/70 kg, multiple dose, Dose 1-15 mg, Median, read-out: Cmax): 2090 ng/mL
- MRT inf [3, 6]: 2.17 h
- Vd [3, 6]: 14.2 L
- half-life ([3]; both sexes, human, plasma, intravenous, 15 mg/70 kg, multiple dose, Dose 1-15 mg, Median, read-out: t1/2 (converted)): 1.65 h
- AUC ([3]; both sexes, human, plasma, intravenous, 15 mg/70 kg, multiple dose, Dose 5-15 mg, Geometric Mean, read-out: AUC24-30): 2070 ng·h/mL
- AUC ([3]; both sexes, human, plasma, intravenous, 15 mg/70 kg, multiple dose, Dose 5-15 mg, Geometric Mean, read-out: AUC24-∞): 2170 ng·h/mL
- Cmax ([3]; both sexes, human, plasma, intravenous, 15 mg/70 kg, multiple dose, Dose 5-15 mg, Geometric Mean, read-out: Cmax): 2290 ng/mL
- Vd ([3]; both sexes, human, plasma, intravenous, 15 mg/70 kg, multiple dose, Dose 5-15 mg, Geometric Mean): 11.9 L
- half-life ([3]; both sexes, human, plasma, intravenous, 15 mg/70 kg, multiple dose, Dose 5-15 mg, Geometric Mean, read-out: t1/2 (converted)): 1.49 h
- AUC ([3]; both sexes, human, plasma, intravenous, 15 mg/70 kg, multiple dose, Dose 5-15 mg, Mean, read-out: AUC24-30): 2080 ng·h/mL
- AUC ([3]; both sexes, human, plasma, intravenous, 15 mg/70 kg, multiple dose, Dose 5-15 mg, Mean, read-out: AUC24-∞): 2180 ng·h/mL
- Cmax ([3]; both sexes, human, plasma, intravenous, 15 mg/70 kg, multiple dose, Dose 5-15 mg, Mean, read-out: Cmax): 2370 ng/mL
- Vd ([3]; both sexes, human, plasma, intravenous, 15 mg/70 kg, multiple dose, Dose 5-15 mg, Mean): 12 L
- half-life ([3]; both sexes, human, plasma, intravenous, 15 mg/70 kg, multiple dose, Dose 5-15 mg, Mean, read-out: t1/2 (converted)): 1.5 h
- AUC ([3]; both sexes, human, plasma, intravenous, 15 mg/70 kg, multiple dose, Dose 5-15 mg, Median, read-out: AUC24-30): 2090 ng·h/mL
- AUC ([3]; both sexes, human, plasma, intravenous, 15 mg/70 kg, multiple dose, Dose 5-15 mg, Median, read-out: AUC24-∞): 2210 ng·h/mL
- Cmax ([3]; both sexes, human, plasma, intravenous, 15 mg/70 kg, multiple dose, Dose 5-15 mg, Median, read-out: Cmax): 2370 ng/mL
- Vd ([3]; both sexes, human, plasma, intravenous, 15 mg/70 kg, multiple dose, Dose 5-15 mg, Median): 12.2 L
- half-life ([3]; both sexes, human, plasma, intravenous, 15 mg/70 kg, multiple dose, Dose 5-15 mg, Median, read-out: t1/2 (converted)): 1.56 h
- AUC(0-t) ([3]; both sexes, human, plasma, intravenous, 15 mg/70 kg, single 5 min infusion 15 mg/70 kg, read-out: AUC0-t, Geometric LS means): 1760 ng·h/mL
- AUC(0-inf) ([3]; both sexes, human, plasma, intravenous, 15 mg/70 kg, single 5 min infusion 15 mg/70 kg, read-out: AUC0-∞, Geometric LS means): 1880 ng·h/mL
- Cmax ([3]; both sexes, human, plasma, intravenous, 15 mg/70 kg, single 5 min infusion 15 mg/70 kg, read-out: Cmax, Geometric LS means): 1740 ng/mL
- AUC(0-t) ([3]; both sexes, human, plasma, intravenous, 30 mg/70 kg, single 5 min infusion 30 mg/70 kg, read-out: AUC0-t, Geometric LS means): 3880 ng·h/mL
- AUC(0-inf) ([3]; both sexes, human, plasma, intravenous, 30 mg/70 kg, single 5 min infusion 30 mg/70 kg, read-out: AUC0-∞, Geometric LS means): 3970 ng·h/mL
- Cmax ([3]; both sexes, human, plasma, intravenous, 30 mg/70 kg, single 5 min infusion 30 mg/70 kg, read-out: Cmax, Geometric LS means): 3700 ng/mL
- AUC(0-t) ([3]; both sexes, human, plasma, intravenous, 45 mg/70 kg, single 5 min infusion 45 mg/70 kg, read-out: AUC0-t, Geometric LS means): 5750 ng·h/mL
- AUC(0-inf) ([3]; both sexes, human, plasma, intravenous, 45 mg/70 kg, single 5 min infusion 45 mg/70 kg, read-out: AUC0-∞, Geometric LS means): 5850 ng·h/mL
- Cmax ([3]; both sexes, human, plasma, intravenous, 45 mg/70 kg, single 5 min infusion 45 mg/70 kg, read-out: Cmax, Geometric LS means): 5720 ng/mL
- clearance [3, 7]: 131 mL/min
- AUC(0-inf) ([3]; both sexes, human, plasma, iv, 15 mg/70 kg, single 5 min iv infusion 15 mg, Geometric Mean, read-out: AUC0-∞): 1910 ng·h/mL
- Cmax ([3]; both sexes, human, plasma, iv, 15 mg/70 kg, single 5 min iv infusion 15 mg, Geometric Mean, read-out: Cmax): 1750 ng/mL
- MRT inf [3, 7]: 1.64 h
- Vd [3, 7]: 12.9 L
- half-life ([3]; both sexes, human, plasma, iv, 15 mg/70 kg, single 5 min iv infusion 15 mg, Geometric Mean, read-out: t½ (converted)): 1.46 h
